{
  "source": "patent US5231089A",
  "about": "“Method of improving oral bioavailability of carbamazepine” (priority 1992, dated 1993)",
  "key": {"[1]": {"system": "generalized tonic-clonic seizures", "settings": "human, in vivo; cited from earlier work"}, "[2]": {"system": "maximal electroshock seizure (MES) test models", "settings": "in vivo; cited from earlier work"}, "[3]": {"settings": "cited from earlier work; for Absolute bioavailability: 100 mg 2% oral suspension vs intravenous infusion (Gerardin et al)"}, "[4]": {"settings": "cited from earlier work"}, "[5]": {"settings": "cited from earlier work; for solubilization in water: 15 mg/mL hydroxypropyl-β-cyclodextrin (Uekama et al)"}, "[6]": {"settings": "dog, in vivo"}, "[7]": {"settings": "with water-soluble β-cyclodextrin epichlorohydrin polymer; cited from earlier work"}, "[8]": {"settings": "in vivo; cited from earlier work"}, "[9]": {"settings": "healthy human subjects (Neuvonen et al)"}},
  "note": "Like-named read-outs stand apart in the source and are kept apart here.",
  "data": [
    {"smiles": "NC(=O)N1c2ccccc2C=Cc2ccccc21", "note": "[carbamazepine, 5H-dibenz[b,f]azepine-5-carboxamide]", "values": [
      {"measurement": "efficacy in generalized tonic-clonic seizures (grand mal)", "setting": "[1]", "value": "proven efficacy"},
      {"measurement": "effectiveness in MES test models", "setting": "[2]", "value": "effective"},
      {"measurement": "total bioavailability (area under the curve)", "setting": "[3]; Australian tablets 1977 vs since 1980 (Eadie et al)", "value": "no significant difference in total bioavailability"},
      {"measurement": "oral absorption, adequacy", "setting": "[3]; Goodman and Gilman", "value": "adequate"},
      {"measurement": "plasma levels, 200 or 400 mg tablets", "setting": "[3]; epileptic patients (Monaco et al)", "value": "no difference in plasma levels"},
      {"measurement": "absorption, rectal versus oral", "setting": "[3]; [9]", "value": "significantly slower"},
      {"measurement": "total bioavailability, rectal versus oral", "setting": "[3]; [9]", "value": "similar"},
      {"measurement": "bioavailability from the oral suspension versus intravenous", "setting": "[3]; healthy male volunteers (Gerardin et al)", "value": "equivalent"},
      {"measurement": "oral absorption", "setting": "[3]; rate/regularity, in words", "value": "slow and somewhat erratic"},
      {"measurement": "Absolute bioavailability", "setting": "[3]; subject 1", "value": 102.3, "unit": "%"},
      {"measurement": "Absolute bioavailability", "setting": "[3]; subject 2", "value": 100.1, "unit": "%"},
      {"measurement": "gingival hypertropy, hirsutism, acne", "setting": "[4]; effects associated with phenytoin", "value": "does not precipitate"},
      {"measurement": "Therapeutic plasma levels", "setting": "[4]; human, in vivo", "value": "4 to 10", "unit": "µg/mL"},
      {"measurement": "level at which diplopia, dizziness, drowsiness and ataxia occur", "setting": "[4]; human, in vivo", "value": "above 6 μg/mL"},
      {"measurement": "sedation", "setting": "[4]; human, in vivo", "value": "less sedating"},
      {"measurement": "serum level at which nystagmus may occur", "setting": "[4]; human, in vivo", "value": "below the therapeutic range"},
      {"measurement": "water solubility of carbamazepine", "setting": "[5]; no cyclodextrin", "value": "extremely poor water solubility"}
    ]},
    {"smiles": "C[C@H]1O[C@@H](O[C@H]2[C@@H](O)C[C@H](O[C@H]3[C@@H](O)C[C@H](O[C@H]4CC[C@@]5(C)[C@H](CC[C@@H]6[C@@H]5C[C@@H](O)[C@]5(C)[C@@H](C7=CC(=O)OC7)CC[C@]65O)C4)O[C@@H]3C)O[C@@H]2C)C[C@H](O)[C@@H]1O", "note": "[digoxin]", "values": [
      {"measurement": "solubilization in water", "setting": "[5]", "value": "improved solubilization"}
    ]},
    {"smiles": "CC(=O)[C@H]1CC[C@H]2[C@@H]3CCC4=CC(=O)CC[C@]4(C)[C@H]3CC[C@]12C", "note": "[progesterone]", "values": [
      {"measurement": "solubilization in water", "setting": "[5]", "value": "improved solubilization"}
    ]},
    {"smiles": "C[C@]12CC[C@H]3[C@@H](CCC4=CC(=O)CC[C@@]43C)[C@@H]1CC[C@@H]2O", "note": "[testosterone]", "values": [
      {"measurement": "solubilization in water", "setting": "[5]", "value": "improved solubilization"}
    ]},
    {"smiles": "C[C@]12C=CC(=O)C=C1CC[C@@H]1[C@@H]2[C@@H](O)C[C@@]2(C)[C@H]1CC[C@]2(O)C(=O)CO", "note": "[prednisolone]", "values": [
      {"measurement": "solubilization in water", "setting": "[5]", "value": "improved solubilization"}
    ]},
    {"smiles": "OC[C@H]1O[C@@H]2O[C@H]3[C@H](O)[C@@H](O)[C@@H](O[C@H]4[C@H](O)[C@@H](O)[C@@H](O[C@H]5[C@H](O)[C@@H](O)[C@@H](O[C@H]6[C@H](O)[C@@H](O)[C@@H](O[C@H]7[C@H](O)[C@@H](O)[C@@H](O[C@H]8[C@H](O)[C@@H](O)[C@@H](O[C@H]9[C@H](O)[C@@H](O)[C@@H](O[C@H]1[C@H](O)[C@H]2O)O[C@@H]9CO)O[C@@H]8CO)O[C@@H]7CO)O[C@@H]6CO)O[C@@H]5CO)O[C@@H]4CO)O[C@@H]3CO", "note": "[γ-cyclodextrin]", "values": [
      {"measurement": "effect on the water solubility of carbamazepine", "setting": "[5]; Brewster et al", "value": "significantly enhance"}
    ]},
    {"smiles": "NC(=O)N1c2ccccc2C=Cc2ccccc21", "note": "[TEGRETOL]", "values": [
      {"measurement": "coefficient of variation around the AUC", "setting": "[6]", "value": 78, "unit": "%"},
      {"measurement": "coefficient of variation of Cmax", "setting": "[6]", "value": 71, "unit": "%"}
    ]},
    {"smiles": "O=C1NC(=O)C(c2ccccc2)(c2ccccc2)N1", "note": "[phenytoin]", "values": [
      {"measurement": "dissolution and absorption", "setting": "[7]", "value": "Improvements"},
      {"measurement": "solubilization in water", "setting": "[5]", "value": "improved solubilization"}
    ]},
    {"smiles": "CC(C(=O)O)c1ccc(-c2ccccc2)c(F)c1", "note": "(stereo not shown) [flurbiprofen]", "values": [
      {"measurement": "solubilization in water", "setting": "[5]", "value": "improved solubilization"}
    ]},
    {"smiles": "COc1ccc2c(c1)c(CC(=O)O)c(C)n2C(=O)c1ccc(Cl)cc1", "note": "[indomethacin]", "values": [
      {"measurement": "solubilization in water", "setting": "[5]", "value": "improved solubilization"}
    ]},
    {"smiles": "OC[C@H]1O[C@@H]2O[C@H]3[C@H](O)[C@@H](O)[C@@H](O[C@H]4[C@H](O)[C@@H](O)[C@@H](O[C@H]5[C@H](O)[C@@H](O)[C@@H](O[C@H]6[C@H](O)[C@@H](O)[C@@H](O[C@H]7[C@H](O)[C@@H](O)[C@@H](O[C@H]8[C@H](O)[C@@H](O)[C@@H](O[C@H]1[C@H](O)[C@H]2O)O[C@@H]8CO)O[C@@H]7CO)O[C@@H]6CO)O[C@@H]5CO)O[C@@H]4CO)O[C@@H]3CO", "note": "[β-cyclodextrin]", "values": [
      {"measurement": "nephrotoxicity", "setting": "[8]", "value": "nephrotoxicity"},
      {"measurement": "aqueous solubility", "setting": "[5]; 25° C.", "value": "about 1.8 % w/v"}
    ]},
    {"smiles": "CCCCCCNC(=O)n1cc(F)c(=O)[nH]c1=O", "note": "[carmofur]", "values": [
      {"measurement": "solubilization in water", "setting": "[5]", "value": "improved solubilization"}
    ]}
  ]
}
